# Laboratory results: ChEMBL document CHEMBL1201862, “PubChem BioAssay data set” (2004)
# The source made the active and inactive calls.
# How the values were obtained:
# SUMO-activating enzyme [1] = biological target: T1, SUMO-activating enzyme (Homo sapiens, UniProt Q9UBT2); experiment: blockers of SAE1/SAE2–UBC9 SUMO transfer – biochemical, HTRF, uHTS, primary screen (AID 2006); format: protein-complex assay
# [2] = biological target: T2, Voltage-gated N-type calcium channel alpha-1B subunit/Amyloid beta A4 precursor protein-binding family A member 1 (Homo sapiens, UniProt Q00975+Q02410); format: protein assay
# Hexokinase HKDC1 = biological target: T3, Hexokinase HKDC1 (Homo sapiens, UniProt Q2TB90); experiment: activation of HKDC1 glucose phosphorylation – biochemical, W721R variant, dose response (AID 504730); format: functional
# T3 sequence (Q2TB90 whole entry): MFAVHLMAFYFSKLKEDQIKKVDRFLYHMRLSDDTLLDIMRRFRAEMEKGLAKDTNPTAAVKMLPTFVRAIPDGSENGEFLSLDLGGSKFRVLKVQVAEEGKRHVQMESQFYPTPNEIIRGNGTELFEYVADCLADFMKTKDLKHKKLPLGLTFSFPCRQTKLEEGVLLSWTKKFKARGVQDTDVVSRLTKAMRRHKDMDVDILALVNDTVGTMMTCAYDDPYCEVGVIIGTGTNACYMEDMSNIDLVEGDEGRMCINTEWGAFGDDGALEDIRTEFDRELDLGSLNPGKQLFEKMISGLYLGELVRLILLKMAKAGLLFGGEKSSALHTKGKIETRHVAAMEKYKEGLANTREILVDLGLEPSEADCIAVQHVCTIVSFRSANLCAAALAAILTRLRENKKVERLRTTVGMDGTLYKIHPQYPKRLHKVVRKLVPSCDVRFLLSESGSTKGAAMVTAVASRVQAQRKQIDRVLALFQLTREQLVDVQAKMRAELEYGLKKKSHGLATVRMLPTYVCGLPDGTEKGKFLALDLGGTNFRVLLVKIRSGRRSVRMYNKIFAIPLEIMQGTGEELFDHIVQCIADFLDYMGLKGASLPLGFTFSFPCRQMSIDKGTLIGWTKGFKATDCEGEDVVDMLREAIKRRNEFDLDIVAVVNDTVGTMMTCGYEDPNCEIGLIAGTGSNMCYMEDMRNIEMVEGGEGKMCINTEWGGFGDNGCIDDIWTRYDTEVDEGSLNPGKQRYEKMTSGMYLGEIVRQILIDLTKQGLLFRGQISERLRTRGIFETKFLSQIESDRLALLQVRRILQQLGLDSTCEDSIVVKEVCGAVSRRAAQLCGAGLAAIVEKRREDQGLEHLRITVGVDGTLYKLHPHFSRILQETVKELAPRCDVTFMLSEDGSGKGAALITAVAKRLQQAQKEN
# [3] = biological target: T2, Voltage-gated N-type calcium channel alpha-1B subunit/Amyloid beta A4 precursor protein-binding family A member 1; format: protein assay; remark: listed apart in the source
# SUMO-activating enzyme [4] = biological target: T1, SUMO-activating enzyme; experiment: blockers of UBC9-mediated SUMO conjugation – biochemical, AlphaScreen, SUMOylation inhibitor project, confirmation (AID 2018); format: functional
# Exodeoxyribonuclease V = Exodeoxyribonuclease V (Escherichia coli (strain K12), UniProt P04993+P07648+P08394); experiment: RecBCD inhibition via phage-restricted bacterial growth – absorbance, V66 E. coli, mutant T4 phage, counter-screen for AddAB inhibitor project, dose response (AID 492957); format: functional, cell-based, Escherichia coli str. K-12 substr. MG1655
# Vero = experiment: cells; format: functional; settings: Chlorocebus sabaeus
# [5] = Counterscreen for AddAB inhibitors: absorbance-based bacterial cell-based high throughput dose response assay for inhibitors of bacterial viability. [Related pubchem assays (depositor defined):AID435030, AID449728, AID449731, AID488942, AID488955, AID488956]; format: functional
# [6] = Trypanosoma cruzi growth suppression in host cells – NIH3T3 host cells, beta-gal luminescence, confirmation (AID 2044); format: functional, cell-based;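 also: intracellular parasites grown in NIH/3T3 mouse fibroblasts as host cells; luminescent beta-galactosidase reporter signal from transgenic T. cruzi replicating inside host cells; inhibitors lower the luminescence signal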
# [7] = NIH3T3 cell viability loss – ATP luminescence, mouse fibroblasts, counter-screen, dose response (AID 2010); format: functional, cell-based;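 also: cells exposed to compound for about 90 hours before reading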
# [8] = biological target: Intestinal-type alkaline phosphatase (Mus musculus, UniProt P24822); experiment: PubChem AID 488785; format: functional
# [9] = biological target: Intestinal-type alkaline phosphatase (Homo sapiens, UniProt P09923); experiment: inhibition of human intestinal alkaline phosphatase – biochemical, dose response (AID 488876); format: functional
# [10] = biological target: T4, Alkaline phosphatase, tissue-nonspecific isozyme (Homo sapiens, UniProt P05186); experiment: TNAP enzyme inhibition by screening hits, dose response, selectivity assay for mouse IAP inhibitor project, biochemical, human TNAP, uHTS hits (AID 488906); format: functional
# T4 sequence (P05186 whole entry): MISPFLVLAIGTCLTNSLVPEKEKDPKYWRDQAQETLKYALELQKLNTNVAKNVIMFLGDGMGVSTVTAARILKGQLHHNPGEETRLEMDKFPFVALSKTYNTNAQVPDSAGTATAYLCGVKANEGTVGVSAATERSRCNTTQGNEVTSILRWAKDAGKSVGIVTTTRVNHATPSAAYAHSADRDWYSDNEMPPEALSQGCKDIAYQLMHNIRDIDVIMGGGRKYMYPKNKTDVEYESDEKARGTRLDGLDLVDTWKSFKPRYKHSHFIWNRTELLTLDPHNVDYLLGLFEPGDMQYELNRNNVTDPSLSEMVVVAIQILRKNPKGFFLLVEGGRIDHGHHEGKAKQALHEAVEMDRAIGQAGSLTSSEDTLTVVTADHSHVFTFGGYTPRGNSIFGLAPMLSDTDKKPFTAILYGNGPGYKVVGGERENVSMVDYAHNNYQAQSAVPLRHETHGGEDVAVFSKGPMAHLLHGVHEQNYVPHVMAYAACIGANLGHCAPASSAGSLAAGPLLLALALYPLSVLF
# [11] = biological target: T5, Dual specificity protein phosphatase 3 (Homo sapiens, UniProt P51452); experiment: VHR1 phosphatase inhibitors, biochemical (AID 1878)
# [12] = biological target: Dual specificity protein phosphatase 6 (Rattus norvegicus, UniProt Q64346); experiment: inhibition of rat DUSP6 enzyme activity – biochemical, in vitro, primary screen (AID 425)
# [13] = biological target: T5, Dual specificity protein phosphatase 3; experiment: VHR1 phosphatase inhibitors, primary screen, biochemical, absorbance, uHTS (AID 1654)
# [14] = toxicity toward cultured mammalian cells – cell-based, plate reader, cherry-pick samples, cytotoxicity control, dose response (AID 504397); format: functional
# CAAX prenyl protease 2 = CAAX prenyl protease 2 (Saccharomyces cerevisiae S288c, UniProt Q03530); format: biochemical
# [15] = biological target: Nucleotide-binding oligomerization domain-containing protein 2 (Homo sapiens, UniProt Q9HC29); experiment: inhibition of MDP-driven NOD2 NF-kB reporter – cell-based, set 3, SAR follow-up (AID 2799); format: functional
# Tumor necrosis factor = Tumor necrosis factor (Homo sapiens, UniProt P01375); experiment: analog potency on TNFa NF-kB signaling – cell-based, set 3, SAR follow-up (AID 2801); format: functional
# [16] = biological target: Nucleotide-binding oligomerization domain-containing protein 1 (Homo sapiens, UniProt Q9Y239); experiment: SAR analysis of compounds that inhibit NOD1 - Set 3. [Related pubchem assays (depositor defined):AID1566, AID1575, AID1578, AID1849, AID1852, AID2333, AID2335, AID2466]; format: functional
# Bcl-2-related protein A1 [17] = biological target: T6, Bcl-2-related protein A1 (Mus musculus, UniProt Q07440); experiment: small-molecule antagonists of Bfl-1/BH3 interaction – biochemical, TR-FRET, mouse Bfl-1, confirmation (AID 621);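 also: TR-FRET binding of GST-Bfl-1 to FITC-labelled Bid peptide via terbium antibody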
# T6 sequence (Q07440 whole entry): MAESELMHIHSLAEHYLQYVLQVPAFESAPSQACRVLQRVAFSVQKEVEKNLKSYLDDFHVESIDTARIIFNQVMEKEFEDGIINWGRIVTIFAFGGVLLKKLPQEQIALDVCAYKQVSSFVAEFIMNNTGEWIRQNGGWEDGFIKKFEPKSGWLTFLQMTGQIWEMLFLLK
# HEK293 = experiment: SAR analysis of compounds that are cytotoxic to HEK293 - Set 3. [Related pubchem assays (depositor defined):AID1575, AID1578, AID1848, AID1849, AID2001, AID2333, AID2334, AID2335, AID2337, AID2469]; format: functional, cell-based; settings: Homo sapiens
# Bcl-2-related protein A1 [18] = biological target: T6, Bcl-2-related protein A1; experiment: Bfl-1 binding inhibitors, SAR follow-up, biochemical, fluorescence polarization (AID 1070)
# [19] = biological target: Glyceraldehyde-3-phosphate dehydrogenase (Homo sapiens, UniProt P04406)
# [20] = biological target: Delta-type opioid receptor (Homo sapiens, UniProt P41143); experiment: SAR Analysis of Agonists of the DOR Receptor using an Image-Based Assay - Set 3. [Related pubchem assays (depositor defined):AID1777, AID1786]; format: functional
# [21] = biological target: T7, Kappa-type opioid receptor (Homo sapiens, UniProt P41145); experiment: SAR analysis of small molecule agonists of the kappa opioid receptor via a luminescent beta-arrestin assay - Set 3. [Related pubchem assays (depositor defined):AID1777, AID1785, AID1786, AID1966, AID2133, AID2136, AID2284, AID2500]; format: functional
# Mu-type opioid receptor = Mu-type opioid receptor (Homo sapiens, UniProt P35372); experiment: SAR Analysis of Agonists of the MOR Receptor using an Image-Based Assay - Set 3. [Related pubchem assays (depositor defined):AID1777, AID1785, AID1786, AID1966, AID2133, AID2136, AID2284, AID2285, AID2352]; format: functional
# [22] = biological target: T7, Kappa-type opioid receptor; experiment: kappa opioid receptor activation by imaging – image-based, set 3, SAR follow-up (AID 488833); format: functional
# [23] = biological target: Voltage-dependent T-type calcium channel subunit alpha-1H (Homo sapiens, UniProt O95180); experiment: inhibition of CACNA1H calcium flux – cell-based, SynthLib3 library, HEK293 Cav3.2, fluorescence (AID 493041); format: functional
# T2 sequence (Q00975 whole entry): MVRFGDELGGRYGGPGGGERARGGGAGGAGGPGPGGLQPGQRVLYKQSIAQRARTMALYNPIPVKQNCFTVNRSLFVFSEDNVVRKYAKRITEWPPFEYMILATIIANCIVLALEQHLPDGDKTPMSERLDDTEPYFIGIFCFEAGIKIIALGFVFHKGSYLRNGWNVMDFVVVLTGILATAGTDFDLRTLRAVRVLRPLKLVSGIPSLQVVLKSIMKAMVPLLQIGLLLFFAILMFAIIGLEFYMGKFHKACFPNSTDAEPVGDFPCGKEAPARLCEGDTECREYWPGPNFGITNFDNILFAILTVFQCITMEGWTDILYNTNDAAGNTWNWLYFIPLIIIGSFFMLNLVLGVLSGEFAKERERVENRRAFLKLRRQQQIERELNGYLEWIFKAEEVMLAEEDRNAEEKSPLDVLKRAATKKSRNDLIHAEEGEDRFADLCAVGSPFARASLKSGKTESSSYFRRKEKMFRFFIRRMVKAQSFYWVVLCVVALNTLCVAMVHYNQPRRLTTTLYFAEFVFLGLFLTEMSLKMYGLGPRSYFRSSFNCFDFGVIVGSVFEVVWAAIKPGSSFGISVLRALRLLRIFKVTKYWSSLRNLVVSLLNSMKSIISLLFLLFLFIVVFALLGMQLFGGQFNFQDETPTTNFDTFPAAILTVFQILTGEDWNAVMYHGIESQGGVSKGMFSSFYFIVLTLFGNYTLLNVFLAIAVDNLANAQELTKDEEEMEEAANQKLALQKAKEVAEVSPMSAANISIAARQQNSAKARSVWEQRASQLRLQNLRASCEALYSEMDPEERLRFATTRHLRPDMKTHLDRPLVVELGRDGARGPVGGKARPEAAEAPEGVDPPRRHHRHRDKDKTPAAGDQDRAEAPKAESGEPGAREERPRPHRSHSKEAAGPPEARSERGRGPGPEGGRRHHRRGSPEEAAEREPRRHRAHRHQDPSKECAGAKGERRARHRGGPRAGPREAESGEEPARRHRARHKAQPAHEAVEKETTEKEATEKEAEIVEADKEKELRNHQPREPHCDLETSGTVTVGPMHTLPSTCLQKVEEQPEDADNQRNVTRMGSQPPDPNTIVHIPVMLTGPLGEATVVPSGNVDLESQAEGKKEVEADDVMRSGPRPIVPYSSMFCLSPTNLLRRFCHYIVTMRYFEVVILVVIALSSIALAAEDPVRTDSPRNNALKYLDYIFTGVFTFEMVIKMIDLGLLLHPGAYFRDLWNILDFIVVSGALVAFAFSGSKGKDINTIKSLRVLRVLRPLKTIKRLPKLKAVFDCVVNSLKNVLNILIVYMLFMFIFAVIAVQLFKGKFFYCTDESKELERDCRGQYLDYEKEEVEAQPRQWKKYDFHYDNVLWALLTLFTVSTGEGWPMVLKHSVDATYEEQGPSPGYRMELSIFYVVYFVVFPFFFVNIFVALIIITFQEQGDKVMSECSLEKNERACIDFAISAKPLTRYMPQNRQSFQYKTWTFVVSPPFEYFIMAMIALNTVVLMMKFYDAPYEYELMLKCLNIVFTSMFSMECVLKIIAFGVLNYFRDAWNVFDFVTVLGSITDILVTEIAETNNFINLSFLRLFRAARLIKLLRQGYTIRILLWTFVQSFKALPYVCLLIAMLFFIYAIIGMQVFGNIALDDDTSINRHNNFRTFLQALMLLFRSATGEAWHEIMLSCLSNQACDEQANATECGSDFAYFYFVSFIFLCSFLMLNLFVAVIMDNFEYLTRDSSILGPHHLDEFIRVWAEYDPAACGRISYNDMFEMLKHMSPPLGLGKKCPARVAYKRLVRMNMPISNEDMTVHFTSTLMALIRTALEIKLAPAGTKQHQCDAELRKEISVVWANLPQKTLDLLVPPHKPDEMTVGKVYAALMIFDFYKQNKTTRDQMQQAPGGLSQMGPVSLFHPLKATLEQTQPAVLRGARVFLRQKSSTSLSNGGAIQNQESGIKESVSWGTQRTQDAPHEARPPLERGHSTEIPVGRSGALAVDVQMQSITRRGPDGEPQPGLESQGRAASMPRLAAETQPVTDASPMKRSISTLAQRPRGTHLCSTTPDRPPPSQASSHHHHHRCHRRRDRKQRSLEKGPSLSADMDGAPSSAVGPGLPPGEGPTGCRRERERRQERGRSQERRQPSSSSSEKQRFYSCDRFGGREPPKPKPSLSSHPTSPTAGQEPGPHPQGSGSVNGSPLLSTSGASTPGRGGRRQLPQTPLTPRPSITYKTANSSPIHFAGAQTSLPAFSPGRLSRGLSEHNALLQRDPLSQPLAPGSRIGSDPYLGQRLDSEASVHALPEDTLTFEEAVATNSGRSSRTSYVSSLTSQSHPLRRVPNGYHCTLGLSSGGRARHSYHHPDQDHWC
# T2 sequence (Q02410 whole entry): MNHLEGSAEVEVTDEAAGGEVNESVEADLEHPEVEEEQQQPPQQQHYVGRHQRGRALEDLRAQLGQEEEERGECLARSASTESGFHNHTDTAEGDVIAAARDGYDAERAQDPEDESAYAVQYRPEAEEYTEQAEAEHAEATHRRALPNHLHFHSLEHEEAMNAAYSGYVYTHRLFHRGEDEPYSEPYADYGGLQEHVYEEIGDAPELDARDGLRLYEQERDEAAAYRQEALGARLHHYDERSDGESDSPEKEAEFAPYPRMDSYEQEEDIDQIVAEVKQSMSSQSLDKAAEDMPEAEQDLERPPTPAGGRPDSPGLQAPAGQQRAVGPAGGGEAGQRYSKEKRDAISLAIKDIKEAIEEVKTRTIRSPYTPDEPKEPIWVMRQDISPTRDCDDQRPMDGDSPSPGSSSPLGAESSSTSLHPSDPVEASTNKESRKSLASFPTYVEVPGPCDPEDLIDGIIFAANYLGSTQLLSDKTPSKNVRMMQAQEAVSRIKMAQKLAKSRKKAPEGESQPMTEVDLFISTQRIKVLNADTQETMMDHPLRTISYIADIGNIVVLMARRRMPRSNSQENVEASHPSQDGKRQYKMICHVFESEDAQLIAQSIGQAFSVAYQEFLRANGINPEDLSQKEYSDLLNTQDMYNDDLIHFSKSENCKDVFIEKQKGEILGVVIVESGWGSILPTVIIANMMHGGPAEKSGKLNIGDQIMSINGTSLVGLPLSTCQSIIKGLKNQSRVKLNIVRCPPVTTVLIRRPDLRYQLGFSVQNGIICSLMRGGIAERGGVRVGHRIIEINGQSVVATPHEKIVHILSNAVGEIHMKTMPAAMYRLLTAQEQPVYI
# T5 sequence (P51452 whole entry): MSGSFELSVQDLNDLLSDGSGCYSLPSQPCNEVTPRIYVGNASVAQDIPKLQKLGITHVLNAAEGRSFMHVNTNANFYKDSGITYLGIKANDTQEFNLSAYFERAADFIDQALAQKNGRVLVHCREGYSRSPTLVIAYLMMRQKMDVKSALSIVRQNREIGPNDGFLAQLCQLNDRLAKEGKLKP
# T1 sequence (Q9UBE0 whole entry): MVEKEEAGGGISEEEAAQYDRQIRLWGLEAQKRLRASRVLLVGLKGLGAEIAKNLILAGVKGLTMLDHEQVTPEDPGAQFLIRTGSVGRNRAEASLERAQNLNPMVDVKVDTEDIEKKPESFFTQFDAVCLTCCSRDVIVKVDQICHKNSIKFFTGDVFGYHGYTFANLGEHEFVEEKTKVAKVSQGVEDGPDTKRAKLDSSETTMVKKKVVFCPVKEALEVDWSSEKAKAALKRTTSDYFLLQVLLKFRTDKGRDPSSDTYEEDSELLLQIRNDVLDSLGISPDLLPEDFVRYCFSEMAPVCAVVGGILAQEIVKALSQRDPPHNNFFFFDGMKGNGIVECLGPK
# T1 sequence (Q9UBT2 whole entry): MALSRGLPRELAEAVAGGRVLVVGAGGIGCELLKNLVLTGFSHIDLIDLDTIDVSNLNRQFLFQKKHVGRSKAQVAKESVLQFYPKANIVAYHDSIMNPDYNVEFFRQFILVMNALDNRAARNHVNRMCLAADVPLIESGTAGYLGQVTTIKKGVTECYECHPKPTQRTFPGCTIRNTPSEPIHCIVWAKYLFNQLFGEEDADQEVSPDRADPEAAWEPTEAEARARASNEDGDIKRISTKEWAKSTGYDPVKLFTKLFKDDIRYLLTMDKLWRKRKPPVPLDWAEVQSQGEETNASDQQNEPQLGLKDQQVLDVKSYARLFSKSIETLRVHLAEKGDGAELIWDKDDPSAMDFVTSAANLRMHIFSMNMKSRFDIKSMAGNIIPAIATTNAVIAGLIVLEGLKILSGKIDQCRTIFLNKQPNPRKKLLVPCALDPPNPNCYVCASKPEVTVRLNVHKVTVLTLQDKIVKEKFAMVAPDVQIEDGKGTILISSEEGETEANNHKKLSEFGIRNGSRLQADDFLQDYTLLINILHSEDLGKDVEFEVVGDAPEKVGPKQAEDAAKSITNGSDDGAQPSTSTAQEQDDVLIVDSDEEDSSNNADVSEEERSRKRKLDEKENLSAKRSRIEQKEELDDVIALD
# T7 sequence (P41145 whole entry): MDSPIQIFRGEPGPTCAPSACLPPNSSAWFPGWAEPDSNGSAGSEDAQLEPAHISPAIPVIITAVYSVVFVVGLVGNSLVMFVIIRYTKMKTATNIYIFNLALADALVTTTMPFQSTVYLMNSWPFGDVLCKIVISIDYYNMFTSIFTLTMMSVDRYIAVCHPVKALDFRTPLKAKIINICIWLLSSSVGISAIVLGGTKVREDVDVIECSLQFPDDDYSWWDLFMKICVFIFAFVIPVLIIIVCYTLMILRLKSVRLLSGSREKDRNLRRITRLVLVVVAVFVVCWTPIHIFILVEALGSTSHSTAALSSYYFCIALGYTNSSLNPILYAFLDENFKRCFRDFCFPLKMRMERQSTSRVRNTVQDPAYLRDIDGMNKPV
# Sequence of CAAX prenyl protease 2 (Q03530 whole entry, the tested form may be a part): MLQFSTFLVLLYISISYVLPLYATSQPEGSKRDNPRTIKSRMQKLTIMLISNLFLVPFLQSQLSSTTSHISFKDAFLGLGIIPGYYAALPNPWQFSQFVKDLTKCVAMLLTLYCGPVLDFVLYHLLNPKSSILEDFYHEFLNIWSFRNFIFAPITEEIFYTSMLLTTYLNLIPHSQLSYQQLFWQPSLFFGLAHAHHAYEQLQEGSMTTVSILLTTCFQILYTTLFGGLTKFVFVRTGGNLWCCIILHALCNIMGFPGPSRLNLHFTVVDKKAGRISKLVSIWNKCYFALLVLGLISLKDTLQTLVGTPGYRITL
smiles,measurement,setting,value
CCOc1ccc(/C=C2/SC(=S)N(CCC(=O)Nc3ccc(C(=O)O)cc3)C2=O)cc1,IC50,SUMO-activating enzyme [1],23.6 µM (active)
same,IC50,[2],> 50 µM (inactive)
same,EC50,Hexokinase HKDC1,> 80 µM (inactive)
same,IC50,[3],5.5 µM (active)
same,IC50,SUMO-activating enzyme [4],16.8 µM (active)
O=C(NCc1ccco1)c1ccc([N+](=O)[O-])o1,IC50,Exodeoxyribonuclease V,113 µM (inactive)
same,IC50,[2],34.6 µM (active)
same,CC50,Vero,22.8 µM (active)
same,IC50,[3],4.6 µM (active)
same,IC50,[5],> 39.5 µM (inactive)
same,EC50,[6],0.128 µM (active)
same,EC50,[7],> 60 µM (not active)
S=C(NCCC(c1ccccc1)c1ccccc1)Nc1ccc(Cl)cc1,IC50,[8],9.61 µM (active)
same,IC50,[9],> 100 µM (inactive)
same,IC50,[10],> 100 µM (inactive)
Cc1ccc(NC(=O)Cn2c(O)c(N=NC(=O)c3cc([N+](=O)[O-])ccc3O)c3ccccc32)cc1,IC50,[11],6.94 µM (active)
same,IC50,[12],31 µM (active)
same,IC50,[13],12.9 µM (active)
CC(=O)N(C)c1ccc(NC(=O)/C=C/c2ccccc2Cl)cc1,AC50,[14],> 350 µM (inactive)
same,AC50,CAAX prenyl protease 2,2.06 µM (active)
COc1ccc(-c2cc(N)n(S(=O)(=O)c3ccc(Cl)cc3)n2)cc1OC,IC50,[15],> 20 µM (inactive)
same,IC50,Tumor necrosis factor,> 20 µM (inactive)
same,IC50,[16],> 20 µM (inactive)
same,IC50,Bcl-2-related protein A1 [17],> 100 µM (not active)
same,IC50,HEK293,> 20 µM (inactive)
same,IC50,Bcl-2-related protein A1 [18],> 100 µM (not active)
same,IC50,[19],> 100 µM (not active)
FC(F)(F)c1ccc(CSc2nnc(-c3ccccn3)n2Cc2ccco2)cc1,EC50,[20],> 64 µM (inactive)
same,EC50,[21],2.77 µM (active)
same,EC50,Mu-type opioid receptor,> 32 µM (inactive)
same,EC50,[22],1.22 µM (active)
CC(C)CCN1CCC[C@H](NC(=O)COc2ccc(F)c(Cl)c2)C1,EC50,[23],10 µM (active)
